Measurements taken from PMC8786932, “Bicyclic azetidines target acute and chronic stages of Toxoplasma gondii by inhibiting parasite phenylalanyl t-RNA synthetase” (Nature Communications, 2022).
“And” between values parts separate entries of the source, which are not always exact repeats. Equal entries are not always repeated. Where two headings read alike, the source gives them in different places.

Experiments:
recombinant HsPheRS = target: T1, recombinant HsPheRS (Homo sapiens, UniProt Q9Y285); assay: Malachite green aminoacylation enzyme assay, HsPheRS; conditions: for Hu PheRS enzyme assay raw signal: replicates
T1 sequence (Q9Y285 1-508): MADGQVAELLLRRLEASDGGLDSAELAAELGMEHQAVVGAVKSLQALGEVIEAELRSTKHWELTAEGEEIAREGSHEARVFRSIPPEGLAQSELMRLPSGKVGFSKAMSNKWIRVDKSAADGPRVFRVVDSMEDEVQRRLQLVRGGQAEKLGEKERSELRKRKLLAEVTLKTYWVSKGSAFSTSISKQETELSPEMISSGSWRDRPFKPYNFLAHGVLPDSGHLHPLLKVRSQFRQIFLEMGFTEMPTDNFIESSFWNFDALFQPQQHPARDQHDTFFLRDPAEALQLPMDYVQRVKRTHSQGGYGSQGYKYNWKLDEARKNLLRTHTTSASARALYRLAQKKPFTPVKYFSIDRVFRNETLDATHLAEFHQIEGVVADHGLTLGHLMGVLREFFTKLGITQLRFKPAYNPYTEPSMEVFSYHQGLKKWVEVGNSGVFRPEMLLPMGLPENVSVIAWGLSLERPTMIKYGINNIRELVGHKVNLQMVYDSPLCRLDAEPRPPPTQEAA
T1 sequence (Q9NSD9 1-589 partner): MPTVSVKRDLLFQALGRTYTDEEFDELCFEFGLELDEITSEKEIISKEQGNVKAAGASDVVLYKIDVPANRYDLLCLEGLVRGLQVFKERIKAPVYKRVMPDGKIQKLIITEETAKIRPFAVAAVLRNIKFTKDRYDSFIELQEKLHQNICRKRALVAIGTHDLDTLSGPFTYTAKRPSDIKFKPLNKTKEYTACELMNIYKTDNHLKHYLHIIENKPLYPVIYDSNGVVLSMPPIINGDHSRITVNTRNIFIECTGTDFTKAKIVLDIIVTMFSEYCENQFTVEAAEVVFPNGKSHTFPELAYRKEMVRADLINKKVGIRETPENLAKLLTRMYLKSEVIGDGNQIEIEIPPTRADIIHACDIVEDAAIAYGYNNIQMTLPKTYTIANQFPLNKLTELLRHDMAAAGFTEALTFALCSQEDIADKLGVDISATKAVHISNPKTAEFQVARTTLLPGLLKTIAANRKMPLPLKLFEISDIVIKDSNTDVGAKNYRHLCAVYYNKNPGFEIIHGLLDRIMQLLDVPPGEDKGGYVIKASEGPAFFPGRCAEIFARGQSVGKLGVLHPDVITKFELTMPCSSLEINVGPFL

[1] = 30 mg/kg oral vs 10 mg/kg
[2] = system: T. gondii RHΔΔ TgPheRS[L497I]; assay: Tachyzoite lytic assay, L497I mutant; assay type: cell-based, Toxoplasma gondii; conditions: for % Parasite Growth: L497I; for EC50: Toxoplasma gondii
Procedure: In vitro cultures of HFF cells containing mature vacuoles were scraped, passaged through 23 g blunt end needles, and filtered using 3 micron filters. Purified parasites were resuspended in 350 μL of cytomix plus[49] and combined in a BTX 4 mm gap cuvette with 30 μL of PCR amplified templates corresponding to mutations of interest and 10 μg of pSAG1:Cas9-GFP U6:sgTgPheRS^[mut] (in 20 μL, 400 μL total volume, see Supplementary Data 1 for sgRNA sequences) prior to electroporation using a BTX ETM 830 electroporator. Amplified templates for TgPheRS mutations were generated from gBlocks (Integrated DNA Technologies, Coralville, IA, USA) that contain a BclI restriction site that replaces the PAM sequence to protect the repair template from being cut by Cas9. At 16 h post-transfection, transgenic parasites expressing pSAG1:Cas9-GFP were sorted on a Sony SH800 FACS sorter directly into 96-well plates. Single clones containing TgPheRS^[mut] were identified by amplifying a ~500 bp PCR fragment around introduced mutation followed by digestion using BclI (New England Biolabs) BclI sensitive clones were expanded and the locus was Sanger sequenced to verify incorporation of each independent mutation. To generate firefly luciferase (FLuc) expressing strains, freshly harvested parasites were combined with 20 μg of pTUB-FLUC DHFR flox plasmid and 10 μg of pSAG1:Cas9-GFP U6:sgUPRT[50] (in 50 μL cytomix plus) and transformed by electroporation as described above. Parasites were allowed to recover overnight followed by sequential selection with pyrimethamine (1.0 μM) and 5-flurodeoxyuracil (FUDR, 10 μM), as described previously. Stable clones were isolated by limiting dilution and a clone from each genetic background selected based on high luciferase activity (Table 1).
Parasite growth on HFF monolayers was monitored using a 96-well plate-based lytic assay modified from a previously described protocol. […]. Freshly harvested parasites (7.5 × 10^4 /well) were added to each well (in 100uL volume) to reach the final concentration range (10 μM to 0.0005 μM, 200 μL/well, 0.1% DMSO). Plates were incubated for 72 h at 37 °C then culture medium was aspirated and monolayers were fixed with 100% ethanol (ETOH) for 5 min at room temperature (RT). After rinsing with water, wells were stained with 0.1% crystal violet solution for 10 min at RT. Plates were rinsed with water, air dried, and absorption quantified on the Cytation 3 multi-mode imager at 570 nm wavelength. % parasite growth was calculated as 100−[(OD value for infected cultures at each concentration of compound/average OD value for no compound and no parasite infection) × 100]. EC50 values were calculated based on the mean of three biological replicates with each replicate containing two technical replicates.

[3] = system: T. gondii RHΔΔ TgPheRS[V262A]; assay: Tachyzoite lytic assay, V262A mutant; assay type: cell-based; conditions: Toxoplasma gondii
Procedure: In vitro cultures of HFF cells containing mature vacuoles were scraped, passaged through 23 g blunt end needles, and filtered using 3 micron filters. Purified parasites were resuspended in 350 μL of cytomix plus[49] and combined in a BTX 4 mm gap cuvette with 30 μL of PCR amplified templates corresponding to mutations of interest and 10 μg of pSAG1:Cas9-GFP U6:sgTgPheRS^[mut] (in 20 μL, 400 μL total volume, see Supplementary Data 1 for sgRNA sequences) prior to electroporation using a BTX ETM 830 electroporator. Amplified templates for TgPheRS mutations were generated from gBlocks (Integrated DNA Technologies, Coralville, IA, USA) that contain a BclI restriction site that replaces the PAM sequence to protect the repair template from being cut by Cas9. […]
Parasite growth on HFF monolayers was monitored using a 96-well plate-based lytic assay modified from a previously described protocol. […] Plates were rinsed with water, air dried, and absorption quantified on the Cytation 3 multi-mode imager at 570 nm wavelength. % parasite growth was calculated as 100−[(OD value for infected cultures at each concentration of compound/average OD value for no compound and no parasite infection) × 100]. EC50 values were calculated based on the mean of three biological replicates with each replicate containing two technical replicates.

[4] = read-out: EC50 (growth restriction)

SMILES: COc1ccc(NC(=O)N2CCCCN3[C@H](CN(C)C)[C@H](c4ccc(C#Cc5ccccc5)cc4)[C@@H]3C2)cc1 [BRD7929]
- IC50 (recombinant HsPheRS): 22.3 µM
- Hu PheRS enzyme assay raw signal (recombinant HsPheRS; BRD7929 0.000001 μM): 0.7213 and 0.8235 and 0.7680
- Hu PheRS enzyme assay raw signal (recombinant HsPheRS; BRD7929 0.000010 μM): 0.6210 and 0.7246 and 0.7585
- Hu PheRS enzyme assay raw signal (recombinant HsPheRS; BRD7929 0.000100 μM): 0.6366 and 0.8166 and 0.8094
- Hu PheRS enzyme assay raw signal (recombinant HsPheRS; BRD7929 0.001000 μM): 0.7178 and 0.7568 and 0.6293
- Hu PheRS enzyme assay raw signal (recombinant HsPheRS; BRD7929 0.010000 μM): 0.4951 and 0.5827 and 0.6166
- Hu PheRS enzyme assay raw signal (recombinant HsPheRS; BRD7929 0.100000 μM): 0.5035 and 0.5467 and 0.5776
- Hu PheRS enzyme assay raw signal (recombinant HsPheRS; BRD7929 1.000000 μM): 0.4827 and 0.4553 and 0.5046
- Hu PheRS enzyme assay raw signal (recombinant HsPheRS; BRD7929 10.000000 μM): 0.4350 and 0.4477 and 0.4390
- Hu PheRS enzyme assay raw signal (recombinant HsPheRS; BRD7929 100.000000 μM): 0.4107 and 0.4228 and 0.4405
- plasma levels at increased dose [1]: did not lead to a proportional increase in plasma levels
- % Parasite Growth ([2]; 0.00152416 uM): 80.35% and 85.68% and 82.9%
- % Parasite Growth ([2]; 0.00457247 uM): 85.9% and 86.11% and 77.47%
- % Parasite Growth ([2]; 0.01371742 uM): 84.76% and 87.14% and 84.02%
- % Parasite Growth ([2]; 0.04115226 uM): 84.55% and 85.22% and 84.57%
- % Parasite Growth ([2]; 0.12345679 uM): 86.89% and 87% and 83.23%
- % Parasite Growth ([2]; 0.37037037 uM): 70.95% and 85.33% and 85.39%
- % Parasite Growth ([2]; 1.11111111 uM): 77.92% and 85.54% and 61.12%
- % Parasite Growth ([2]; 3.33333333 uM): 63.14%
- % Parasite Growth ([2]; 10 uM): 57.07% and 70.68% and 64.5%
- EC50 [2, 4]: 2310 nM
- EC50 ([2]; read-out: EC50, L497I): 1170 nM
- EC50 ([3]; 72 h, read-out: EC50, V262A): 202 nM
- EC50 [3, 4]: 159 nM
